For experiment [1], the system named is Pyricularia oryzae. It counts as cell-based. The following applies: single active, growth at 405 nm 7 days after inoculation, 18° C.
The test system of experiment [2] is Alternaria solani. As to the kind of experiment: Activity against Alternaria solani in the microtiterplate test. It is filed as cell-based. The following applies: single active, growth at 405 nm 7 days after inoculation, 18° C.

Where two headings read alike, the source gives them in different places.

In patent publication US20120316062A1 (priority 2009, published 2012) one finds Observed efficacy data, which are given here for two molecules.

For the molecule `COC(=O)N(OC)c1ccccc1COc1ccn(-c2ccc(Cl)cc2)n1` [pyraclostrobin], the Observed efficacy stood at 23 in experiment [1] (0.004 ppm) and 56 in experiment [2] (0.063 ppm).

Regarding `O=C(NC(=O)c1c(F)cccc1F)Nc1ccc(Oc2ccc(C(F)(F)F)cc2Cl)cc1F` [flufenoxuron], the Observed efficacy was determined as 6 in experiment [1] (1 ppm) and 0 in experiment [2] (16 ppm).
